Laboratory results taken from the SangsterLogP compilation.

Experiment: method code SF-AS, from DOI: 10.1515/znb-1972-0211, PMID: 4401834
Conditions: pH 7.0
Compound COC(=O)/C(C#N)=N\Nc1cc(Cl)cc(Cl)c1 has a logD of 4.5.
Compound CC(=O)C(C#N)=NNc1ccc2c(c1)OC(F)(F)C(F)(F)O2 has a logD of 5.31.
CC(=O)C(C#N)=NNc1ccccc1Cl showed a logD of 4.01.
Work on CC(=O)C(C#N)=NNc1cc(Cl)cc(Cl)c1 yielded a logD of 4.68.
COC(=O)/C(C#N)=N\Nc1ccc(SC(F)(F)F)cc1 gave a logD of 4.27.
In the case of CCOC(=O)/C(C#N)=N\Nc1cccc(Cl)c1, the logD is reported as 3.94.
With CCOC(=O)C(C#N)=NNc1ccccc1Cl the logD was 3.38.
CC(C)(C)C(=O)C(C#N)=NNc1ccc2c(c1)OC(F)(F)C(F)(F)O2 showed a logD of 4.96.
CC(=O)C(C#N)=NNc1cccc(Cl)c1 showed a logD of 3.91.
For CC(C)(C)C(=O)C(C#N)=NNc1cc(C(F)(F)F)cc(C(F)(F)F)c1, the logD was 5.44.
CCOC(=O)C(C#N)=NNc1cc(C(F)(F)F)ccc1Cl showed a logD of 4.45.
CCOC(=O)/C(C#N)=N\Nc1cc(Cl)c(Cl)cc1Cl showed a logD of 5.21.
With CCOC(=O)C(C#N)=NNc1cc(Cl)c(Cl)c(Cl)c1 the logD was 5.03.
CCS(=O)(=O)c1ccc(C(F)(F)F)cc1NN=C(C#N)C(C)=O showed a logD of 4.22.
With COC(=O)C(C#N)=NNc1ccccc1 the logD was 2.59.
CCOC(=O)/C(C#N)=N\Nc1cc(Cl)cc(Cl)c1 gave a logD of 3.82.
For COC(=O)C(C#N)=NNc1ccc2c(c1)OC(F)(F)C(F)(F)O2, the logD was 4.86.
For COC(=O)/C(C#N)=N\Nc1cccc(Cl)c1, the logD was 3.56.
In the case of COC(=O)/C(C#N)=N\Nc1cc(C(F)(F)F)cc(C(F)(F)F)c1, the logD is reported as 5.02.
For CC(=O)C(C#N)=NNc1ccc(SC(F)(F)F)cc1, the logD was 5.04.
COC(=O)C(C#N)=NNc1cc(C(F)(F)F)ccc1Cl showed a logD of 4.42.
Work on COC(=O)C(C#N)=NNc1cc(C#N)ccc1C#N yielded a logD of 2.81.
With CC(C)(C)C(=O)C(C#N)=NNc1cc(Cl)c(Cl)cc1Cl the logD was 5.86.
For COC(=O)C(C#N)=NNc1ccc(S(=O)(=O)C(F)(F)F)cc1, the logD was 4.22.
COC(=O)/C(C#N)=N\Nc1cc(Cl)c(Cl)c(Cl)c1 showed a logD of 5.22.
For CC(C)(C)C(=O)C(C#N)=NNc1ccc(Cl)cc1C(F)(F)F, the logD was 5.67.
With CC(=O)C(C#N)=NNc1ccc(Cl)cc1 the logD was 4.13.
CC(=O)C(C#N)=NNc1ccc(Cl)c(Cl)c1 gave a logD of 4.56.
CC(C)(C)C(=O)C(C#N)=NNc1cccc(Cl)c1 gave a logD of 4.62.
Work on Cc1cc(Cl)ccc1NN=C(C#N)C(=O)C(C)(C)C yielded a logD of 4.31.
Compound CCOC(=O)/C(C#N)=N\Nc1ccc(Cl)c(C(F)(F)F)c1 has a logD of 4.86.
Compound CC(=O)C(C#N)=NNc1ccc(Cl)cc1C has a logD of 4.28.
Compound COC(=O)C(C#N)=NNc1cccc(C(F)(F)F)c1 has a logD of 3.78.
Compound COC(=O)C(C#N)=NNc1ccccc1C(F)(F)F has a logD of 3.72.
For COC(=O)C(C#N)=NNc1ccc(C(F)(F)F)cc1, the logD was 3.79.

Experiment: method code SF, from DOI: 10.1515/znb-1972-0211, PMID: 4401834
Conditions: pH 7.0
With COC(=O)/C(C#N)=N\Nc1cc(Cl)c(Cl)cc1Cl the logD was 5.15.
